Assay results published in ChEMBL document CHEMBL1201862, “PubChem BioAssay data set” (2004).
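96-well plates; 48 h exposure; 5 concentrations. Endpoints by linear interpolation between flanking doses. Not reached: highest tested concentration assigned. Here, GI50 denotes the concentration required for 50% inhibition of growth.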 The source made the active and inactive calls. Cut-off read from the data, not from the text of the source: active = GI50 up to about 1.1 µM and inactive = higher.

Legend:
Assay in all cases: inhibition of tumour cell growth, NCI panel, 48 h
[1] = test system: HOP-62
[2] = test system: A498
[3] = test system: NCI-H460
[4] = test system: BT-549
[5] = test system: MDA-N
[6] = test system: HL-60
[7] = test system: MCF7
[8] = test system: SF-539
[9] = test system: SF-268
[10] = test system: COLO 205
[11] = test system: SNB-19
[12] = test system: HCC 2998
[13] = test system: Malme-3M
[14] = test system: HCT-15
[15] = test system: K562
[16] = test system: OVCAR-3
[17] = test system: NCI-H522
[18] = test system: HCT-116
[19] = test system: OVCAR-5
[20] = test system: SK-OV-3
[21] = test system: KM12
[22] = test system: OVCAR-8
[23] = test system: UACC-257
[24] = test system: PC-3
[25] = test system: NCI-H23
[26] = test system: NCI/ADR-RES
[27] = test system: U-251
[28] = test system: UO-31
[29] = test system: CAKI-1
[30] = test system: T47D
[31] = test system: SF-295
[32] = test system: SW-620
[33] = test system: NCI-H226
[34] = test system: MDA-MB-231
[35] = test system: RPMI-8226
[36] = test system: SK-MEL-28
[37] = test system: UACC-62
[38] = test system: A549
[39] = test system: 786-0
[40] = test system: DU-145
[41] = test system: ACHN
[42] = test system: OVCAR-4
[43] = test system: CCRF-CEM
[44] = test system: IGROV-1
[45] = test system: HOP-92
[46] = test system: SR
[47] = test system: MDA-MB-435
[48] = test system: HT-29
[49] = test system: SN12C
[50] = test system: SNB-75
[51] = test system: M14
[52] = test system: SK-MEL-2
[53] = test system: EKVX
[54] = test system: MOLT-4
[55] = test system: LOX IMVI
[56] = test system: SK-MEL-5
[57] = test system: TK-10

S=c1[nH]n2c(CCCCCCCCc3nnc4sc(=S)[nH]n34)nnc2s1
GI50 [1]: > 100 µM (inactive)
GI50 [2]: > 100 µM (inactive)
GI50 [3]: > 100 µM (inactive)
GI50 [4]: > 100 µM (inactive)
GI50 [5]: > 100 µM (inactive)
GI50 [6]: > 100 µM (inactive)
GI50 [7]: > 100 µM (inactive)
GI50 [8]: > 100 µM (inactive)
GI50 [9]: > 100 µM (inactive)
GI50 [10]: > 100 µM (inactive)
GI50 [11]: > 100 µM (inactive)
GI50 [12]: > 100 µM (inactive)
GI50 [13]: > 100 µM (inactive)
GI50 [14]: > 100 µM
GI50 [15]: > 100 µM (inactive)
GI50 [16]: > 100 µM (inactive)
GI50 [17]: > 100 µM (inactive)
GI50 [18]: > 100 µM (inactive)
GI50 [19]: > 100 µM (inactive)
GI50 [20]: > 100 µM (inactive)
GI50 [21]: > 100 µM (inactive)
GI50 [22]: > 100 µM (inactive)
GI50 [23]: > 100 µM (inactive)
GI50 [24]: > 100 µM (inactive)
GI50 [25]: > 100 µM (inactive)
GI50 [26]: > 100 µM (inactive)
GI50 [27]: > 100 µM (inactive)
GI50 [28]: > 100 µM (inactive)
GI50 [29]: > 100 µM (inactive)
GI50 [30]: > 100 µM (inactive)
GI50 [31]: > 100 µM (inactive)
GI50 [32]: > 100 µM (inactive)
GI50 [33]: > 100 µM (inactive)
GI50 [34]: > 100 µM (inactive)
GI50 [35]: > 100 µM (inactive)
GI50 [36]: > 100 µM (inactive)
GI50 [37]: > 100 µM (inactive)
GI50 [38]: > 100 µM (inactive)
GI50 [39]: > 100 µM (inactive)
GI50 [40]: > 100 µM (inactive)
GI50 [41]: > 100 µM (inactive)
GI50 [42]: > 100 µM (inactive)
GI50 [43]: 83 µM (inactive)
GI50 [44]: > 100 µM (inactive)
GI50 [45]: > 100 µM (inactive)
GI50 [46]: > 100 µM (inactive)
GI50 [47]: > 100 µM (inactive)
GI50 [48]: > 100 µM (inactive)
GI50 [49]: > 100 µM (inactive)
GI50 [50]: > 100 µM (inactive)
GI50 [51]: > 100 µM (inactive)
GI50 [52]: > 100 µM (inactive)
GI50 [53]: > 100 µM (inactive)
GI50 [54]: > 100 µM (inactive)

O=C1Nc2ccccc2/C1=N/Nc1nc(-c2ccc([N+](=O)[O-])cc2)cs1
GI50 [1]: > 100 µM (inactive)
GI50 [3]: 11 µM (inactive)
GI50 [4]: 15.6 µM (inactive)
GI50 [5]: 27 µM (inactive)
GI50 [7]: 35.3 µM (inactive)
GI50 [8]: 17.1 µM (inactive)
GI50 [10]: 44.2 µM (inactive)
GI50 [11]: 44.1 µM (inactive)
GI50 [55]: 35.6 µM (inactive)
GI50 [12]: 21.9 µM (inactive)
GI50 [14]: 14.5 µM
GI50 [16]: 30.8 µM (inactive)
GI50 [18]: 29.6 µM (inactive)
GI50 [19]: 22 µM (inactive)
GI50 [20]: 63.1 µM (inactive)
GI50 [21]: 28.5 µM (inactive)
GI50 [22]: 16.8 µM (inactive)
GI50 [23]: 32.1 µM (inactive)
GI50 [24]: 24 µM (inactive)
GI50 [25]: 27.7 µM (inactive)
GI50 [26]: 15.6 µM (inactive)
GI50 [27]: 57 µM (inactive)
GI50 [28]: 11.4 µM (inactive)
GI50 [29]: 17.9 µM (inactive)
GI50 [30]: 29.1 µM (inactive)
GI50 [31]: 24.1 µM (inactive)
GI50 [32]: 32.7 µM (inactive)
GI50 [33]: 38.9 µM (inactive)
GI50 [56]: 31.7 µM (inactive)
GI50 [34]: 40.9 µM (inactive)
GI50 [36]: 29.7 µM (inactive)
GI50 [38]: 30.1 µM (inactive)
GI50 [39]: 19.4 µM (inactive)
GI50 [57]: 17.5 µM (inactive)
GI50 [40]: 26.5 µM (inactive)
GI50 [41]: 13.3 µM (inactive)
GI50 [42]: 18.1 µM (inactive)
GI50 [44]: 18.7 µM (inactive)
GI50 [45]: 17.4 µM (inactive)
GI50 [47]: 24.7 µM (inactive)
GI50 [48]: 22.9 µM (inactive)
GI50 [49]: 27 µM (inactive)
GI50 [50]: 7.45 µM (inactive)
GI50 [51]: 15 µM (inactive)
GI50 [52]: 26.9 µM (inactive)
GI50 [53]: 61 µM (inactive)
GI50 [54]: 51.9 µM (inactive)

COc1ccc(/C=c2/sc3n(c2=O)C(c2ccccc2)C2(O)CCCCC2N=3)cc1 (stereo not given)
GI50 [1]: > 12.5 µM (inactive)
GI50 [3]: > 12.5 µM (inactive)
GI50 [4]: > 12.5 µM (inactive)
GI50 [5]: > 12.5 µM (inactive)
GI50 [6]: > 12.5 µM (inactive)
GI50 [7]: > 12.5 µM (inactive)
GI50 [9]: > 12.5 µM (inactive)
GI50 [11]: > 12.5 µM (inactive)
GI50 [55]: > 12.5 µM (inactive)
GI50 [12]: > 12.5 µM (inactive)
GI50 [13]: > 12.5 µM (inactive)
GI50 [15]: > 12.5 µM (inactive)
GI50 [16]: > 12.5 µM (inactive)
GI50 [17]: > 12.5 µM (inactive)
GI50 [18]: > 12.5 µM (inactive)
GI50 [19]: > 12.5 µM (inactive)
GI50 [22]: > 12.5 µM (inactive)
GI50 [23]: > 12.5 µM (inactive)
GI50 [24]: > 12.5 µM (inactive)
GI50 [25]: > 12.5 µM (inactive)
GI50 [27]: > 12.5 µM (inactive)
GI50 [28]: > 12.5 µM (inactive)
GI50 [29]: > 12.5 µM (inactive)
GI50 [30]: > 12.5 µM (inactive)
GI50 [32]: > 12.5 µM (inactive)
GI50 [33]: > 12.5 µM (inactive)
GI50 [56]: > 12.5 µM (inactive)
GI50 [35]: > 12.5 µM (inactive)
GI50 [36]: > 12.5 µM (inactive)
GI50 [37]: > 12.5 µM (inactive)
GI50 [38]: > 12.5 µM (inactive)
GI50 [39]: > 12.5 µM (inactive)
GI50 [57]: > 12.5 µM (inactive)
GI50 [41]: > 12.5 µM (inactive)
GI50 [42]: > 12.5 µM (inactive)
GI50 [43]: > 12.5 µM (inactive)
GI50 [44]: > 12.5 µM (inactive)
GI50 [46]: > 12.5 µM (inactive)
GI50 [47]: > 12.5 µM (inactive)
GI50 [48]: > 12.5 µM (inactive)
GI50 [50]: > 12.5 µM (inactive)
GI50 [51]: > 12.5 µM (inactive)
GI50 [52]: > 12.5 µM (inactive)
GI50 [54]: > 12.5 µM (inactive)
